Laboratory results: patent US20020155503A1 (priority 1997, published 2002)

Target: protein tyrosine kinase v-Abl (Abelson murine leukemia virus, UniProt P00521)
Conditions: Library Sub-Set 4 (X-Tyr-X-X-X)
Description: In the fourth application of this invention, a recombinant form of the Abelson murine leukaemia virus protein tyrosine kinase v-Abl was used in an in vitro phosphorylation reaction to phosphorylate the library sub-set 4 which scans the sequence −1 to +3 around a zero position tyrosine residue, as previously performed for the ZAP-70 library. Detection of phosphoryrosine was achieved using anti-phosphotyrosine antibody detection in an ELISA assay using tetramethylbenzidine substrate and recording absorbance at 450 nm. […] Deconvolution of the hit peptides was performed as described in WO 97/42216.
Library peptides were phosphorylated in pools of 20 peptides at a final concentration of 1 μM total peptide in 50 mM HEPES, pH 7.5, 0.1% Triton X-100, 100 μM ATP, 10 mM MnCl2, 1 mM DTT and 0.2 mM sodium orthovanadate for 30 minutes at 30° C. These reaction mixtures were then stopped using 100 mM EDTA, 6 mM adenosine, transferred to strepavidin-coated microtiter plates and allowed to bind for 30 minutes at 20° C. Unincorporated reaction products were washed from the plate using PBS/0.1% Tween 20 then plate incubation performed with anti-phosphotyrosine antibody (Sigma mouse monoclonal clone PT66) in 2% BSA/PBS/Tween for 1 hour at 20° C. […] HRP detection was then performed with tetramethylbenzidine (TMB) substrate and measuring absorbance at 450 nm using a spectrophotometer (Dynex MRX). […]

protein tyrosine kinase v-Abl, sequence (P00521 whole entry): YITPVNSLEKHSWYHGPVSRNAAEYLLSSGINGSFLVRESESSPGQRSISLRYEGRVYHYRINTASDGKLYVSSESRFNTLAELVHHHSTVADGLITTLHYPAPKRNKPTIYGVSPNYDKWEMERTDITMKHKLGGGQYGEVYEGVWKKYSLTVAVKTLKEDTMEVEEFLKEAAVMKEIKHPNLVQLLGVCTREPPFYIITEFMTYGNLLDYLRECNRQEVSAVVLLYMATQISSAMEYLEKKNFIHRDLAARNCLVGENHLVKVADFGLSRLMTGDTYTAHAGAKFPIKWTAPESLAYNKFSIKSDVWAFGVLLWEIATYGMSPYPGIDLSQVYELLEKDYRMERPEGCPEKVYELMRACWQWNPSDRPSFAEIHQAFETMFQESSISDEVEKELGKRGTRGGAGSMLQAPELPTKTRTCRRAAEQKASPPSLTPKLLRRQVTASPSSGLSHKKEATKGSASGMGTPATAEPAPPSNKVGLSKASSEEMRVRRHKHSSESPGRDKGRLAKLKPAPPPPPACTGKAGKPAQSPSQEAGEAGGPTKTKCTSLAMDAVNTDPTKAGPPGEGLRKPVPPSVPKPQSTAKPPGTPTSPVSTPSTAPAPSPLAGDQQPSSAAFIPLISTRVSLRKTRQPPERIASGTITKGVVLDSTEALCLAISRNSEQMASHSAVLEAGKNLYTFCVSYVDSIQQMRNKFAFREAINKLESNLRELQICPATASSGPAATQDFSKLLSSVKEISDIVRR

“Serine-tyrosine-phenylalanine-histamine-glutamine” was tested, and the “substrate deconvoluted from library sub-set” value was “active site substrate recognition substrate”.
